Results published in US20080175935A1, “Method to Treat Skin Conditions with Narcissus Tazetta Bulb Extract” (NuSkin International, Inc., priority 2004, published 2008).
Entries after “also recorded” stand apart in the source; their conditions may differ.

What was measured:
arNOX [1] = assay: arNOX assay: ferricytochrome c reduction (superoxide production) in sera; format: biochemical, human; conditions: for serum activity (cytochrome c reduction) in response to added reagent: sera of aged individuals; for oscillating activity in sera of aged individuals: FIG. 2G (SOD), FIG. 2H (coenzyme Q); for amount at which inhibition of age-related cytochrome c reduction reaches a plateau: sera; for further inhibition of ferric cytochrome c reduction when added after maximal inhibition by the other agent: serum, SOD 30 units and coenzyme Q 450 μg added sequentially, 300 sec; for inhibition of ferric cytochrome c reduction activity: untreated serum samples; for Inhibition by superoxide dismutase: sera from aged individuals; for Superoxide production (reduction of ferricytochrome c), with superoxide dismutase: sera of aged (80-98 y) individuals, n = 10
Description: Reduction of ferric cytochrome c by superoxide was employed as a standard measure of superoxide formation (Mayo, L. A. and Cumutte, J. (1990) Meth. Enzyme. 186, 567-575. 7. Butler, J, Koppenol, W. H. and Margollash, E. (1982) J. Biol. Chem. 257, 10747).
Assays of ferric cytochrome c reduction in sera compared 53 samples from young (20 to 40 y) and 65 samples from aged (80 to 100) individuals. […]
(§1) Measurement of arNOX activity based on ferricytochrome c reduction as a measure of superoxide production were taken. The rate of reduction of ferricytochrome c was determined from the increase in absorbance at 550 nm with 540 nm as reference. This is a widely accepted method when coupled to superoxide dismutase inhibition for the measurement of superoxide generation. The assay consists of 150 μl (2 mg/ml) of oxidized ferricytochrome c solution and 150 μl serum or 40 μl buffy coats in PBSG buffer (8.06 g NaCl, 0.2 g KCl, 0.18 g Na2HPO4, 0.26 g KH2PO4, 0.13 g CaCl2, 0.1 g MgCl2, 1.35 g glucose dissolved in 1000 ml deionized water, adjusted to pH 7.4, filtered and stored at 4° C.). Rates were determined using a SLM Aminco DW-2000 spectrophotometer (Milton Roy, Rochester, N.Y., USA) in the dual wave length mode of operation with continuous measurements over 1 min every 1.5 min. After 45 min, test compound was added and the reaction was continued for 45 min. A millimolar extinction coefficient of 19.1 cm^−1 was used for reduced ferricytochrome c. (D. M. Morré, F. Guo and D. J. Morré, 2003, Mol. Cell. Biochem. 254: […]).

arNOX [2] = assay: arNOX assay: ferricytochrome c reduction (superoxide production) by buffy coats; format: cell-based, human; conditions: for arNOX inhibition, activity at a dilution of 1:50: dilution 1:50 (solids 2 mM), buffy coats from a person; for arNOX inhibition, activity at a dilution of 1:500: dilution 1:500; for arNOX inhibition, activity at a dilution of 1:500 / Rate of reduction of ferricytochrome c, +100 μM Q10: buffy coats; for oscillating activity of buffy coats and sera of aged individuals: FIG. 2, SOD 60 units or coenzyme Q 450 μg added after 45 min, 70-100 y; for Rate of reduction of ferricytochrome c, +100 μM Q10: mean ± SD, negative rates statistically zero
Procedure: Reduction of ferric cytochrome c by superoxide was employed as a standard measure of superoxide formation (Mayo, L. A. and Cumutte, J. (1990) Meth. Enzyme. 186, 567-575. 7. Butler, J, Koppenol, W. H. and Margollash, E. (1982) J. Biol. Chem. 257, 10747). If superoxide dismutase was added to remove the superoxide as it was generated, the reduction of ferric cytochrome c was prevented to confirm that ferric cytochrome c reduction in the assay was due to superoxide.
Buffy coats were pooled from aged individuals (70-100 y) and the reduction of ferric cytochrome c was observed (FIG. 2) with an oscillating activity. […] This oscillatory reduction of cytochrome c was absent from buffy coat fractions from younger (20-40 y) individuals (FIGS. 2A and 2B). […] The rate of coenzyme Q inhibited ferric cytochrome c reduction was 7-fold greater in buffy coat fractions of 90-94 y individuals as compared to 80-89 y individuals (Table 1). Buffy coats of less than 65 y individuals lacked the activity.
The compounds listed above in Table 4 were tested initially in the standard arNOX assay at a dilution of 1:50. Solids were prepared in water at an initial concentration of approximately 100 mM and then also tested at a dilution of 1:50, i.e., 2 mM. All compounds were evaluated using human buffy coats prepared from a person. Several compounds were evaluated with sera from aged patients as follow: IBR-DORMIN® Narcissus tazetta bulb extract (person), IBR-TOM® aqueous serum of tomato, available from Israeli Biotechnology Research Ltd. Corporation, Tel Aviv, Israel, (person), L-carnosine (person, person), L-ERGO® synthetically derived 1-ergothioneine, available from OXIS Health Products, Inc., Portland, Oreg. (person). Serum and buffy coats gave consistent results. Compounds active at 1:50 dilutions were reassayed with buffy coats at a dilution of 1:500 and compounds active at 1:500 were reassayed with buffy coats at a dilution of 1:5000.
Details of the assay protocol are as follow. Buffy coats, a mixture of lymphocytes and platelets, were obtained from a commercial supplier. The blood samples were maintained at 4° C. prior to collection and assay. Ca. 10^7 cells were added to each assay. Cell numbers were determined using a hemocytometer.
as §1

[3] = test system: NADH cytochrome c reductase; assay: NADH-cytochrome c reductase activity in serum; format: biochemical, human; conditions: serum of either young or aged individuals
Description: (§2) However, the NADH-stimulated activity was about 4 nmoles/min/ml of sera for sera of both young and aged individuals. The aging-specific increment of ca. 2 nmoles/min/mg protein was observed both in the presence or absence of NADH.

[4] = test system: NADH cytochrome c reductase; assay: NADH cytochrome c reductase of pig liver microsomes; format: biochemical
Description: as §2

**Q.** With Cc1cc(-c2ccc(S(=O)(=O)O)cc2)c2ccc3c(-c4ccc(S(=O)(=O)O)cc4)cc(C)nc3c2n1 [bathocuproenedisulforiate] as the compound, how does the “serum activity (cytochrome c reduction) in response to added reagent” value (“serum activity (cytochrome c reduction)” below) (arNOX [1]) read?
**A.** unaffected

**Q.** Which “serum activity (cytochrome c reduction)” value (arNOX [1]) does the source give for [Cu] [copper] here?
**A.** did not enhance the activity

**Q.** N[C@@H](CCC(=O)N[C@@H](CS)C(=O)NCC(=O)O)C(=O)O [GSH] was tested. Which “serum activity (cytochrome c reduction)” value (arNOX [1]) did it give?
**A.** neither stimulates nor inhibits

**Q.** With CCCOC(=O)c1ccc(O)cc1 [propylparaben, Propylparaben] as the compound, how does the “arNOX inhibition, activity at a dilution of 1:50” value (arNOX [2]) read?
**A.** active

**Q.** What about the “arNOX inhibition, activity at a dilution of 1:500” value (shortened to “arNOX inhibition … of 1:500”) (arNOX [2]) of the same compound?
**A.** inactive

**Q.** With OO [hydrogen peroxide] as the compound, how does the “serum activity after oxidation of protein SH” value (arNOX [1]; dilute (0.01%) hydrogen peroxide followed by catalase) read?
**A.** inactive

**Q.** COC1=C(OC)C(=O)C(C/C=C(\C)CC/C=C(\C)CC/C=C(\C)CC/C=C(\C)CC/C=C(\C)CC/C=C(\C)CC/C=C(\C)CC/C=C(\C)CC/C=C(\C)CCC=C(C)C)=C(C)C1=O [coenzyme Q, ubiquinone-10] was tested. Which “oscillating activity in sera of aged individuals” value (arNOX [1]) did it give?
**A.** eliminated; also recorded: largely blocked

**Q.** What about the “amount at which inhibition of age-related cytochrome c reduction reaches a plateau” value (arNOX [1]; FIG. 4) of the same compound?
**A.** about 450 μg

**Q.** What about the “further inhibition of ferric cytochrome c reduction when added after maximal inhibition by the other agent” value (arNOX [1]) of the same compound?
**A.** no further inhibition

**Q.** And the “inhibition of ferric cytochrome c reduction activity” value (arNOX [1]; 300 μg/ml)?
**A.** 40%

**Q.** And the “activity of NADH cytochrome c reductase in serum” value [3]?
**A.** Neither SOD nor coenzyme Q inhibited

**Q.** What about the “activity of authentic NADH cytochrome c reductase of pig liver microsomes” value [4] of the same compound?
**A.** did not significantly inhibit

**Q.** And the “oscillating activity of buffy coats and sera of aged individuals” value (arNOX [2])?
**A.** reduced to basal levels

**Q.** What about the “oscillating reduction of ferric cytochrome c” value (arNOX [2]; buffy coats pooled from aged individuals (70-100 y), 100 μM coenzyme Q (FIG. 2D)) of the same compound?
**A.** inhibited completely

**Q.** What about the EC50 (arNOX [2]; buffy coats pooled from aged individuals (70-100 y), read-out: EC50 for inhibition of oscillating reduction of ferric cytochrome c) of the same compound?
**A.** 20 µM

**Q.** And the “Rate of reduction of ferricytochrome c, +100 μM Q10” value (arNOX [2]; group 80-89 years)?
**A.** −0.03 ± 0.02 nmoles min^−1 10^7 cells^−1

**Q.** What about the “Rate of reduction of ferricytochrome c, +100 μM Q10” value (arNOX [2]; group 90-94 years) of the same compound?
**A.** −0.07 ± 0.07 nmoles min^−1 10^7 cells^−1

**Q.** How did the “effect on the arNOX activities of a serum sample” value (arNOX [1]; one experiment, serum sample containing 3 arNOX activities) turn out when NCCC(=O)N[C@@H](Cc1cnc[nH]1)C(=O)O [L-carnosine, L-Carnosine] was run?
**A.** inhibited one arNOX, stimulated a second arNOX and was without effect on a third

**Q.** Which “serum activity (cytochrome c reduction)” value (arNOX [1]) does the source give for O=C(O)c1cc[c]([Hg][Cl])cc1 [p-chloromercuribenzoate] here?
**A.** inhibited

**Q.** How did the “oscillating activity in sera of aged individuals” value (arNOX [1]; listed as SOD) turn out when superoxide dismutase was run?
**A.** eliminated; also recorded: completely inhibited

**Q.** What about the “Inhibition by superoxide dismutase” value (arNOX [1]; before proteinase K digestion) of the same compound?
**A.** 40%

**Q.** What about the “Inhibition by superoxide dismutase” value (arNOX [1]; following proteinase K digestion) of the same compound?
**A.** 60%

**Q.** And the “Superoxide production (reduction of ferricytochrome c), with superoxide dismutase” value (arNOX [1]; after proteinase K)?
**A.** 0.22 ± 0.1 Nmoles/min/mi/sera

**Q.** What about the “Superoxide production (reduction of ferricytochrome c), with superoxide dismutase” value (arNOX [1]; no proteinase K) of the same compound?
**A.** 0.42 ± 0.1 Nmoles/min/mi/sera

**Q.** What about the “amount at which inhibition of age-related cytochrome c reduction reaches a plateau” value (arNOX [1]; FIG. 3) of the same compound?
**A.** 45 units

**Q.** What about the “further inhibition of ferric cytochrome c reduction when added after maximal inhibition by the other agent” value (arNOX [1]) of the same compound?
**A.** no further inhibition

**Q.** And the “inhibition of ferric cytochrome c reduction activity” value (arNOX [1]; 30 units/ml)?
**A.** 40±10%

**Q.** And the “activity of NADH cytochrome c reductase in serum” value [3]?
**A.** Neither SOD nor coenzyme Q inhibited

**Q.** What about the “oscillating activity of buffy coats and sera of aged individuals” value (arNOX [2]) of the same compound?
**A.** reduced to basal levels

**Q.** What about the “oscillating reduction of ferric cytochrome c” value (arNOX [2]; buffy coats pooled from aged individuals (70-100 y), SOD added (FIG. 2C)) of the same compound?
**A.** inhibited completely

**Q.** Which “serum activity (cytochrome c reduction)” value (arNOX [1]) does the source give for Catalase here?
**A.** without effect

**Q.** Which “effect on the two distinct arNOX activities of the buffy coats” value (arNOX [2]; buffy coats containing two distinct arNOX activities) does the source give for COC(=O)c1ccc(O)cc1 [methylparaben, Methylparaben] here?
**A.** inhibited one and had no effect on the other

**Q.** What about the “arNOX inhibition, activity at a dilution of 1:50” value (arNOX [2]) of the same compound?
**A.** active

**Q.** What about the “arNOX inhibition … of 1:500” value (arNOX [2]) of the same compound?
**A.** inactive

**Q.** For Cc1cc(-c2ccccc2)c2ccc3c(-c4ccccc4)cc(C)nc3c2n1 [bathocuproene], which “serum activity (cytochrome c reduction)” value (arNOX [1]) is on record?
**A.** unaffected

**Q.** COc1cc(CNC(=O)CCCC/C=C/C(C)C)ccc1O [capsaicin] was tested. Which “response of arNOX to the drug” value (arNOX [1]) did it give?
**A.** does not respond

**Q.** (−)-epigallocatechin gallate was tested. Which “response of arNOX to the drug” value (arNOX [1]) did it give?
**A.** does not respond

**Q.** How did the “arNOX inhibition, activity at a dilution of 1:50” value (arNOX [2]) turn out when C[N+](C)(C)[C@@H](Cc1c[nH]c(=S)[nH]1)C(=O)[O-] [L-Ergothioneine] was run?
**A.** mixed results

**Q.** What about the “arNOX inhibition … of 1:500” value (arNOX [2]) of the same compound?
**A.** inactive
